In patent publication US8846947B2, “Benzimidazoles and related analogs as sirtuin modulators” (GlaxoSmithKline LLC, priority 2008, dated 2014):
Read-outs that look alike come from different tables or passages of the source.

Target: T1, SIRT1 (Homo sapiens, UniProt Q96EB6)
T1 sequence (Q96EB6 1-747): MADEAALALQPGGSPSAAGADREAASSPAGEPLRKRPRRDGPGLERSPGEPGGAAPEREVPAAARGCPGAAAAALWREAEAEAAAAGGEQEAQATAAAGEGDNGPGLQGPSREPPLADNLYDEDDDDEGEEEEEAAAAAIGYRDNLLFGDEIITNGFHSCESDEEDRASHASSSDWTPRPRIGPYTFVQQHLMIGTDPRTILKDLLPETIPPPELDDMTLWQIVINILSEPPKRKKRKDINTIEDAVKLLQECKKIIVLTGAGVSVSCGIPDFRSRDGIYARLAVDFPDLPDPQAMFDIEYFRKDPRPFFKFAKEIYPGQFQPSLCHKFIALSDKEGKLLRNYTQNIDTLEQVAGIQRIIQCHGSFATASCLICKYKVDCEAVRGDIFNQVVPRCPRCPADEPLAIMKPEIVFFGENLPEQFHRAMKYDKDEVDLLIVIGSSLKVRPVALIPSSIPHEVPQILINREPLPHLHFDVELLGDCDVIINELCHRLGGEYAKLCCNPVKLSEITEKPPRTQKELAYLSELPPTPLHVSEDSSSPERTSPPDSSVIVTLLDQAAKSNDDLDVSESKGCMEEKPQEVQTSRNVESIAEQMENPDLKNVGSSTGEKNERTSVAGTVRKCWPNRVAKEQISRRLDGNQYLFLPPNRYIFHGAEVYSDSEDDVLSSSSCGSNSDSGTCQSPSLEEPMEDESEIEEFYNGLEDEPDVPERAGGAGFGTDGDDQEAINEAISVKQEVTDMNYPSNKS
Assay: Mass spectrometry based SIRT1 deacetylase activation assay (acetylated p53-derived peptide substrate)
Type: biochemical
From the text: A mass spectrometry based assay was used to identify modulators of SIRT1 activity. The mass spectrometry based assay utilizes a peptide having 20 amino acid residues as follows: Ac-EE-K(biotin)-GQSTSSHSK(Ac)NleSTEG-K(5TMR)-EE-NH2 (SEQ ID NO: 1) wherein K(Ac) is an acetylated lysine residue and Nle is a norleucine. The peptide is labeled with the fluorophore 5TMR (excitation 540 nm/emission 580 nm) at the C-terminus. The sequence of the peptide substrate is based on p53 with several modifications. In addition, the methionine residue naturally present in the sequence was replaced with the norleucine because the methionine may be susceptible to oxidation during synthesis and purification.
The mass spectrometry assay is conducted as follows: 0.5 μM peptide substrate and 120 μM βNAD^+ is incubated with 10 nM SIRT1 for 25 minutes at 25° C. in a reaction buffer (50 mM Tris-acetate pH 8, 137 mM NaCl, 2.7 mM KCl, 1 mM MgCl2, 5 mM DTT, 0.05% BSA). Test compounds may be added to the reaction as described above. […] After the 25 minute incubation with SIRT1, 10 μL of 10% formic acid is added to stop the reaction. Reactions are sealed and frozen for later mass spec analysis. Determination of the mass of the substrate peptide allows for precise determination of the degree of acetylation (i.e. starting material) as compared to deacetylated peptide (product).
A control for inhibition of sirtuin activity is conducted by adding 1 μL of 500 mM nicotinamide as a negative control at the start of the reaction (e.g., permits determination of maximum sirtuin inhibition). A control for activation of sirtuin activity is conducted using 10 nM of sirtuin protein, with 1 μL of DMSO in place of compound, to determine the amount of deacetylation of the substrate at a given timepoint within the linear range of the assay. This timepoint is the same as that used for test compounds and, within the linear range, the endpoint represents a change in velocity.
For the above assay, SIRT1 protein was expressed and purified as follows. […] The protein was expressed by induction with 1 mM IPTG as an N-terminal His-tag fusion protein at 18° C. overnight and harvested at 30,000×g. Cells were lysed with lysozyme in lysis buffer (50 mM Tris-HCl, 2 mM Tris[2-carboxyethyl]phosphine (TCEP), 10 μM ZnCl2, 200 mM NaCl) and further treated with sonication for 10 min for complete lysis. The protein was purified over a Ni-NTA column (Amersham) and fractions containing pure protein were pooled, concentrated and run over a sizing column (Sephadex S200 26/60 global). The peak containing soluble protein was collected and run on an Ion-exchange column (MonoQ). Gradient elution (200 mM-500 mM NaCl) yielded pure protein. This protein was concentrated and dialyzed against dialysis buffer (20 mM Tris-HCl, 2 mM TCEP) overnight. The protein was aliquoted and frozen at −80° C. until further use.
Sirtuin modulating compounds that activated SIRT1 were identified using the assay described above and are shown below in Table 1. The EC1.5 values for the activating compounds are represented by A (EC1.5<1.0 uM), B (EC1.5 1-25 uM), C (EC1.5 >25 uM). The percent maximum fold activation is represented by A (Fold activation >200%) or B (Fold Activation <200%).

[1] = 0.5 μM peptide substrate, 120 μM βNAD+, 10 nM SIRT1, 25 minutes at 25° C.
[2] = 0.5 μM peptide substrate, 120 μM βNAD+, 10 nM SIRT1, 25 min at 25° C.
[3] = 0.5 μM peptide substrate, 120 μM βNAD+, 10 nM SIRT1, 25 min at 25° C., read-out: EC1.5

| Compound | Fold Act. (percent maximum fold activation) [2] | EC1.5 [3] [nM] | EC1.5 | Fold Act. (percent maximum fold activation) | also measured |
| --- | --- | --- | --- | --- | --- |
| O=C(Nc1nccs1)c1cccc2[nH]c(-c3cc(N4CCCC4)ccc3C(F)(F)F)nc12 [Compound 664] |  |  |  |  | EC1.5 [1]: C (EC1.5 >25 uM); Fold Act. (percent maximum fold activation) [1]: B (Fold Activation <200%) |
| O=C(Nc1cccc(OCC(O)CO)c1)c1cccc2[nH]c(-c3cc(F)ccc3C(F)(F)F)nc12 (stereo not shown) [Compound 480] | A (Fold activation >200%) | < 1000 |  |  |  |
| O=C(Nc1nccs1)c1cc(N2CCOCC2)cc2[nH]c(-c3ccccc3C(F)(F)F)nc12 [Compound 628, 6-morpholino-N-(thiazol-2-yl)-2-(2-(trifluoromethyl)phenyl)-1H-benzo[d]imidazole-4-carboxamide] |  |  |  |  | EC1.5 [1]: A (EC1.5<1.0 uM); Fold Act. (percent maximum fold activation) [1]: A (Fold activation >200%) |
| Cc1nc(C)c(-c2nc3c(C(=O)Nc4nccs4)cccc3[nH]2)s1 [Compound 304] |  |  | A (EC1.5<1.0 uM) | A (Fold activation >200%) |  |
| Cc1cnc(NC(=O)c2cccc3[nH]c(-c4ccc(F)cc4C(F)(F)F)nc23)s1 [Compound 357] |  |  | A (EC1.5<1.0 uM) | A (Fold activation >200%) |  |
| O=C(Nc1ccccn1)c1cccc2[nH]c(-c3cccc(-c4nnn[nH]4)c3)nc12 [Compound 361] |  |  | A (EC1.5<1.0 uM) | A (Fold activation >200%) |  |
| O=C(Nc1cccc(OC[C@H](O)CO)c1)c1cncc2[nH]c(-c3ccccc3C(F)F)nc12 [Compound 713] |  |  |  |  | EC1.5 [1]: A (EC1.5<1.0 uM); Fold Act. (percent maximum fold activation) [1]: A (Fold activation >200%) |
| Cc1cc(NC(=O)c2cccc3[nH]c(-c4cccc(C(F)(F)F)c4)nc23)no1 [Compound 299] |  |  | B (EC1.5 1-25 uM) | A (Fold activation >200%) |  |
| O=C(Nc1nccs1)c1cncc2[nH]c(-c3ccc(Cl)cc3C(F)(F)F)nc12 [Compound 648] |  |  |  |  | EC1.5 [1]: A (EC1.5<1.0 uM); Fold Act. (percent maximum fold activation) [1]: A (Fold activation >200%) |
| O=C(NC1CCOCC1)c1cccc2[nH]c(-c3ccc(Cl)cc3C(F)(F)F)nc12 [Compound 434] | B (Fold Activation <200%) | 1000 to 25000 |  |  |  |
| O=C(Nc1ccncc1)c1cccc2[nH]c(-c3ccc(Cl)cc3C(F)(F)F)nc12 [Compound 315] |  |  | A (EC1.5<1.0 uM) | A (Fold activation >200%) |  |
| Cc1cnc(NC(=O)c2cccc3[nH]c(-c4ccc(F)cc4C(F)F)nc23)s1 [Compound 560] | A (Fold activation >200%) | < 1000 |  |  |  |
| O=C(Nc1nccs1)c1cccc2nc(-c3ccc(N4CCCC4)cc3C(F)F)[nH]c12 [Compound 764] |  |  |  |  | EC1.5 [1]: A (EC1.5<1.0 uM); Fold Act. (percent maximum fold activation) [1]: A (Fold activation >200%) |
| O=C(Nc1ccccn1)c1cccc2[nH]c(-c3ccccc3OCCN3CCC(F)(F)CC3)nc12 [Compound 613] |  |  |  |  | EC1.5 [1]: B (EC1.5 1-25 uM); Fold Act. (percent maximum fold activation) [1]: B (Fold Activation <200%) |
| Cc1cnc(NC(=O)c2cccc3[nH]c(-c4cccc(N5CCOCC5)c4)nc23)s1 [Compound 396] |  |  | A (EC1.5<1.0 uM) | A (Fold activation >200%) |  |
| O=C(NCc1cccnc1)c1cccc2[nH]c(-c3cccc(C(F)(F)F)c3)nc12 [Compound 270] |  |  | C (EC1.5 >25 uM) | B (Fold Activation <200%) |  |
| Cc1cnc(NC(=O)c2cccc3[nH]c(-c4ccc(OCC(O)CO)cc4C(F)F)nc23)s1 (stereo not shown) [Compound 557] | A (Fold activation >200%) | < 1000 |  |  |  |
| O=C(Nc1cccnc1)c1cccc2[nH]c(-c3ccc(N4CC[C@H](F)C4)cc3C(F)(F)F)nc12 [Compound 574] | A (Fold activation >200%) | < 1000 |  |  |  |
| O=C(Nc1ccc(OCC(O)CO)cc1)c1cccc2[nH]c(-c3ccc(Cl)cc3C(F)(F)F)nc12 (stereo not shown) [Compound 493] | A (Fold activation >200%) | < 1000 |  |  |  |
| O=C(Nc1nc(CN2CCOCC2)cs1)c1cccc2[nH]c(-c3cc(F)cc(F)c3)nc12 [Compound 820] |  |  |  |  | EC1.5 [1]: B (EC1.5 1-25 uM); Fold Act. (percent maximum fold activation) [1]: A (Fold activation >200%) |
| O=C(Nc1nccs1)c1cccc2[nH]c(-c3ccc(OCCN4CCOCC4)cc3C(F)F)nc12 [Compound 722] |  |  |  |  | EC1.5 [1]: A (EC1.5<1.0 uM); Fold Act. (percent maximum fold activation) [1]: A (Fold activation >200%) |
| O=C(Nc1cccc[n+]1[O-])c1cccc2[nH]c(-c3ccc(Cl)cc3C(F)(F)F)nc12 [Compound 330] |  |  | B (EC1.5 1-25 uM) | A (Fold activation >200%) |  |
| O=C(Nc1nccs1)c1cccc2[nH]c(-c3ccc(F)c(C(F)(F)F)c3)nc12 [Compound 216] |  |  | C (EC1.5 >25 uM) | B (Fold Activation <200%) |  |

Continued, in another order:

| Fold Act. (percent maximum fold activation) [2] | EC1.5 [3] [nM] | EC1.5 | Fold Act. (percent maximum fold activation) | Compound | also measured |
| --- | --- | --- | --- | --- | --- |
| A (Fold activation >200%) | < 1000 |  |  | O=C(Nc1ccccn1)c1cccc2[nH]c(-c3ccccc3C(F)F)nc12 [Compound 516] |  |
| A (Fold activation >200%) | 1000 to 25000 |  |  | O=C(Nc1ccccn1)c1cccc2[nH]c(-c3ccccc3OC3CCNC3)nc12 (stereo not shown) [Compound 460] |  |
|  |  | B (EC1.5 1-25 uM) | A (Fold activation >200%) | O=C(Nc1nccs1)c1cccc2[nH]c(-c3cccnc3N3CCOCC3)nc12 [Compound 250, 2-(2-morpholinopyridin-3-yl)-N-(thiazol-2-yl)-1H-benzo[d]imidazole-4-carboxamide] |  |
| A (Fold activation >200%) | < 1000 |  |  | O=C(Nc1ccncn1)c1cccc2[nH]c(-c3ccc(N4CCOCC4)cc3C(F)(F)F)nc12 [Compound 591] |  |
| B (Fold Activation <200%) | 1000 to 25000 |  |  | O=C(Nc1ccccn1)c1cccc2[nH]c(-c3cc(F)cc(Cl)c3OCCN3CCOCC3)nc12 [Compound 544] |  |
| A (Fold activation >200%) | 1000 to 25000 |  |  | O=C(Nc1cccnn1)c1cccc2[nH]c(-c3cccc(N4CCOCC4)c3)nc12 [Compound 470] |  |
| A (Fold activation >200%) | < 1000 |  |  | Cc1cnc(NC(=O)c2cccc3[nH]c(-c4ccc(N5CCOCC5)cc4C(F)(F)F)nc23)s1 [Compound 549] |  |
| B (Fold Activation <200%) | < 1000 |  |  | CC(C)(C)c1ccc(OCCN2CCOCC2)c(-c2nc3c(C(=O)Nc4ccccn4)cccc3[nH]2)c1 [Compound 548] |  |
| A (Fold activation >200%) | < 1000 |  |  | O=C(Nc1cccnn1)c1cccc2[nH]c(-c3ccc(N4CCOCC4)cc3C(F)(F)F)nc12 [Compound 550] |  |
